Assay results taken from patent US20240002846A1, “COMPOSITIONS AND METHODS FOR THE DIAGNOSIS AND TREATMENT OF ITCH” (Duke University, priority 2020, published 2024).
“Also recorded” adds a separate entry of the source.

How the values were obtained:
pERK expression = experiment: pERK Western blot in cultured human keratinocytes; type: cell-based; settings: inhibitor 10 μM
Procedure: Primary human keratinocytes were cultured as previously described (Chen et al. J. Biol. Chem. 2016, 291, 10252-10262). In brief, surgically discarded foreskin samples, obtained from Duke Children's Hospital in accordance to institutionally approved IRB protocol, were incubated with Dispase (Gibco, Gaithersburg, MD, 4 U/mL) for 12-16 h at 4° C. followed by 0.05% trypsin (Gibco, Gaithersburg, MD) for 10-20 min at 37° C. Cells were maintained in keratinocyte serum-free media (Invitrogen, Waltham, MA) with 5% CO2 at 37° C. and used at passage 2-3.
Western Blot. Routine procedures were followed (Chen et al. J. Biol. Chem. 2016, 291, 10252-10262, Chen et al. Pain 2014, 155, 2662-2672). Briefly, cultured keratinocytes and dissected dorsal neck skin (0.5×0.5 cm, the area that received the treatment) were protein-extracted in radioimmunoprecipitation assay (RIPA, Sigma, St. Louis, MO) buffer and electroblotted to polyvinylidene fluoride (PVDF) membranes after gel separation of proteins in a 4-15% polyacrylamide gel (Bio-Rad, Hercules, CA). […] Immunoblot band intensity was quantitated using the software Image J and ERK served as a control for pERK expression.

[1] = test system: vesicular release from mKC; experiment: Vesicular release from cultured mouse keratinocytes (AChE activity); type: cell-based; settings: 10 μM
Procedure: Vesicular release from cultured keratinocytes was quantified by detecting acetylcholinesterase (AChE) activity in the extracellular release fluid. (Gupta et al. Am. J. Physiol. Heart Circ. Physiol. 2007, 292, H3052-3056; Malik et al. Methods Mol. Biol. 2016, 1448, 237-248). CBQCA Protein Quantitation Kit (Molecular Probes, Eugene, OR) was used to assess the total protein amounts of each sample. Quantitation was carried out according to kit instructions (Fluorocet, Systems Biosciences, Palo Alto, CA). Briefly, vesicles were lysed to release esterase enzyme whose activity is measured using a florescence dye, excitation at 544 nm and emission at 590 nm. Fluostar Optima (BMG Labtech, Cary, NC) microplate reader was used to measure esterase activity. 500 ng protein equivalent of input was used per well. To determine the contribution of Rab5a and Rab27a to LPC-induced miR-146a release, cells were pre-treated with the Rab5a (5′-GUAGAAUCAA GUUUCUAAUUCUGAA-3′ SEQ ID NO: 9, 5′-[…]-3′ SEQ ID NO: 10) or Rab27a (5′-AGCUAAAA CUGAGAGCUUCAAACAG-3′ SEQ ID NO: 11, 5′-[…]-3′ SEQ ID NO: 12) siRNA (IDT, Coralville, IA) for 72 h before stimulation. Control cells were treated with scramble siRNA.

mice = experiment: Scratching behavior after i.d. injection into dorsal neck skin; type: in vivo, mouse; settings: i.d. into dorsal neck, LPA 18:1 500 μg, LPC 50-500 μg, LPC species at the same dose
Procedure: Behavioral assessment. Mice were shaved at the dorsal neck 1 d before experiments. Mice were allowed to acclimate to a Plexiglas chamber for at least 30 min before testing and received intradermal (i.d.) injection of 50 μL of LPA 18:1, LPC, LPC 14:0, LPC 16:0, LPC 18:0, LPC 18:1, miR-146a mimic, miR-146a scramble, ATP or vehicles through a 30-gauge needle (Becton Dickinson, Franklin Lakes, NJ) into the neck skin. After injections, mice were immediately placed back to the chamber, and the scratching behavior was recorded by a Panasonic video camera for 30 min. Hind limb scratching behavior directed toward the injected area at the nape of neck was observed. One scratch is defined as a lifting of the hind limb toward the injection site and then a replacing of the limb back to the floor, regardless of how many scratching strokes take place between those two movements. Behavioral analysis was conducted by observers blinded to genotype.

hTRPV4 = biological target: T1, hTRPV4 (Homo sapiens, UniProt Q9HBA0); experiment: Single-channel recordings of hTRPV4 in HEK293 cells; type: biochemical; settings: +60 mV; 100 nM GSK101 or 5 μM LPC 18:1
T1 construct: expressed in transfected cells; host or cells: HEK293 (ATCC CRL-1573)
T1 sequence (Q9HBA0 whole entry): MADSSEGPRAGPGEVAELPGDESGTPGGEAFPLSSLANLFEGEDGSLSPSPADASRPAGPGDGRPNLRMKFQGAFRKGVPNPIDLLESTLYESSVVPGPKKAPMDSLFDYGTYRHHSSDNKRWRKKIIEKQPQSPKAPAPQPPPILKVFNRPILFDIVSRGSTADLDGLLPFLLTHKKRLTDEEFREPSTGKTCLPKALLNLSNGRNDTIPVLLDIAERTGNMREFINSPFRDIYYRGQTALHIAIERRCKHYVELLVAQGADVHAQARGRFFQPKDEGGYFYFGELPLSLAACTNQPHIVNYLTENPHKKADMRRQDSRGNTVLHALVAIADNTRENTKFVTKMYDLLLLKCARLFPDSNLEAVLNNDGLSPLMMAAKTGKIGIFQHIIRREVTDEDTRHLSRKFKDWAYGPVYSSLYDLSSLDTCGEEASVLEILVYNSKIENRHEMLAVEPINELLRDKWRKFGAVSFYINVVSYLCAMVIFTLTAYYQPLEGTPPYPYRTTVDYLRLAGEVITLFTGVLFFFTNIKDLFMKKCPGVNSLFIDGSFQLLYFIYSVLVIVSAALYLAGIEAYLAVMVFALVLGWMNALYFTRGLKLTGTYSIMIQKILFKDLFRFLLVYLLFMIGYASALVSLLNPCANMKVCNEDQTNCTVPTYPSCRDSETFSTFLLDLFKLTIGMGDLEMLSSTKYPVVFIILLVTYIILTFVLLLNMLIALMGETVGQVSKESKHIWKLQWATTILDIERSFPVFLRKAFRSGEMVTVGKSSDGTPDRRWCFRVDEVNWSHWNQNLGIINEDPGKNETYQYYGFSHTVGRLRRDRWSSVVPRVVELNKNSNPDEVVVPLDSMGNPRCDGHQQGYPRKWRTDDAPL
Procedure: Cell culture and transfection. HEK293 cells (ATCC® CRL-1573) were cultured on poly-D-lysine coated coverslips in 24-well plate containing DMEM media with high-Glucose (Gibco, Gaithersburg, MD) supplemented with 10% fetal bovine serum (FBS, HyClone Laboratories, Logan, UT) and 100 U/mL of penicillin/streptomycin (Gibco, Gaithersburg, MD). Cell cultures were maintained with 5% of CO2 in a humidified incubator at 37° C. HEK cells were transfected with rat or human wild type or mutant TRPV4 channels with EGFP or YFP coupled to their C-termini (1.5 μg of plasmid for excised patch clamp and Ca^2+ imaging and 200 ng for single-channel experiments). The jetPEI™ Polyplus transfection reagent (Polyplus Transfection, New York, NY) for electrophysiology or Lipofectamine™ 2000 Reagent (Invitrogen, Waltham, MA) for Ca^2+ imaging were used for transfections per manufacturer's instructions as previously described (Chen et al. Pain 2014, 155, 2662-2672; Morales-Lazaro et al. Nat. Commun. 2016, 7, 13092). To investigate whether miR-146a can directly activate TRPV1 channels or indirectly via TLRs, HEK293 cells were transfected with rTRPV1 or co-transfected rTRPV1 with rTLR7, rTLR2, or rTLR6 (Addgene, Watertown, MA) for Ca^2+ imaging assay. Control cells were transfected with GFP or YFP.
For single-channel recordings, Borosilicate glass […]) pipettes were used. Recordings were obtained at +60 mV by acquiring several traces of 1-3 s duration. The effect of GSK1016790A or LPC 18:1 on single TRPV4 channels was studied in inside-out. Currents were filtered at 2 kHz and sampled at 5 kHz. […] Single-channel openings and closures were identified with the half-threshold crossing technique (Morales-Lazaro et al. Nat. Commun. 2016, 7, 13092). The channel open probability was calculated as the sum of the total open time divided by the sweep duration. Dwell times and amplitude histograms in the closed or open states were collected in logarithmic time histograms according to the Sine-Sigworth transformation (Sigworth et al. Biophys. J. 1987, 52, 1047-1054). Sums of three or two exponential components were fitted to histograms using a least-squares algorithm.

Compound: Cc1c(C(=O)Nc2cccc(C(F)(F)F)c2)cc(-c2ccccc2)n1CCCN1CCOCC1 [HC067047]
- effect on LPC-increased pERK expression (pERK expression): eliminated the increase; also recorded: abolished

Compound: N#CC(=C(/N)Sc1ccccc1N)/C(C#N)=C(\N)Sc1ccccc1N [U0126]
- effect of U0126 on LPC-induced vesicular release [1]: completely eliminated

Compound: LPC 18:1
- scratching behavior (itch) induced by i.d. injection of lipid (mice): caused robust itch; also recorded: most potent
- scratching behavior (itch) induced by i.d. injection of lipid (mice; listed as LPC (18:1)): the most potent
- open level (single-channel) amplitude (hTRPV4): 3.27±0.41 pA
- open probability (Po) (hTRPV4): 0.75±0.08
- single channel conductance (gi) (hTRPV4): 54.5 pS
